Reference: patent US20210038607A1, “OXADIAZOLYLTHIOPHENE DERIVATIVES USEFUL AS HISTONE DEACETYLASE INHIBITORS” (Karus Therapeutics Limited, priority 2018, published 2021)

Tests used:
Human HDAC5 = target: T1, Human HDAC5 (Homo sapiens, UniProt Q9UQL6); experiment: HDAC5 biochemical assay, class IIa-specific substrate; conditions: read-out: HDAC Isoform IC50 (nM) 5
T1 construct: full length with C-terminal His tag, MW=51.1 kDa; His (C); host or cells: baculovirus expression system
In short: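 Two-step fluorogenic read-out: deacetylated trifluoroacetyl-lysine AMC substrate (50 μM) digested by developer, measured at Ex/Em 360/460. Deacetylation step: 0.05 ng/ul His-tagged full-length baculoviral enzyme with compound, 30 min, room temperature, pH 8.0 Tris with 1 mg/mL BSA and 1% DMSO.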

Human HDAC8 = target: T2, Human HDAC8 (Homo sapiens, UniProt Q9BY41); experiment: HDAC8 biochemical assay, AMC-labeled peptide substrate; conditions: read-out: HDAC Isoform IC50 (nM) 8
T2 construct: full length with C-terminal His tag, MW=42.6 kDa; His (C); host or cells: baculovirus expression system
T2 sequence (Q9BY41 1-377): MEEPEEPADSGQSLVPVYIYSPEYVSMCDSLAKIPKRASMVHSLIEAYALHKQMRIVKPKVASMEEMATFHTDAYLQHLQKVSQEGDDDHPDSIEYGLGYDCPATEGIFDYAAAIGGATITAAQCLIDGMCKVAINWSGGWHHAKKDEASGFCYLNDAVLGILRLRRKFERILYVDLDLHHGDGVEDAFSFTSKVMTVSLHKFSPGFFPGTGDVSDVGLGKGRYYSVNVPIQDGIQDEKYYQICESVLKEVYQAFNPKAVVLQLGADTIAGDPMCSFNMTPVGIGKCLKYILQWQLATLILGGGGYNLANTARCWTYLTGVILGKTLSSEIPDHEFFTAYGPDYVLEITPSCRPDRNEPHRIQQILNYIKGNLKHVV
Description: (§1) Activity against all zinc-dependent HDACs 1 to 11 was assessed by using an acetylated AMC-labeled peptide substrate. The substrate RHKK(Ac)AMC was used for HDAC1, HDAC2, HDAC3, HDAC6 and HDAC10; the substrate used for HDAC8 was RHK(Ac)K(Ac)AMC. Activity against the class IIa HDACs (HDAC4, 5, 7, 9) and HDAC11 was determined using a class IIa-specific substrate, BOC-Lys(trifluoroacetyl)-AMC (“Trifluoroacetyl Lysine”; see Lahm et al, 2007, PNAS, 104, 17335-17340). All assays were based on the AMC-labeled substrate and developer combination.
(§2) The protocol involved a two-step reaction: first, the substrate with the acetylated lysine side chain is incubated with a sample containing HDAC activity, to produce the deacetylated products, which are then digested in the second step by the addition of developer to produce the fluorescent signal proportional to the amount of deacetylated substrates.
Human HDAC8 (GenBankAccession No. NM_018486), full length with C-terminal His tag, MW=42.6 kDa, expressed in a baculovirus expression system.
(§3) Assay Buffer: 50 mM Tris-HCl, pH8.0, 137 mM NaCl, 2.7 mM KCl, 1 mM MgC2. Before use, 1 mg/mL BSA and DMSO are added.
HDAC8: 1 ng/ul HDAC8 and 100 µM HDAC8 substrate are in the reaction buffer with 1% DMSO final. Incubate for 2 hours at 30° C.
(§4) Stage 1: Deacetylation of substrate by incubation of HDAC enzymes with compounds
(§5) Stage 2: Development by addition of Developer to digest the deacetylated substrate, and generate the fluorescent colour; Detection: 360/460 Ex/Em

[1] = target: T3, Complex of human HDAC3 and human NCOR2 (Homo sapiens, UniProt O15379); experiment: HDAC3 biochemical assay, AMC-labeled peptide substrate; conditions: read-out: HDAC Isoform IC50 (nM) 3
T3 construct: full length with C-terminal His tag, MW=49.7 kDa; His (C); host or cells: baculovirus expression system (co-expressed)
Description: as §1, §2
Complex of human HDAC3 (GenBank Accession No. NM_003883), full length with C-terminal His tag, MW=49.7 kDa, and human NCOR2 (amino acid 395-489) (GenBank Accession No. NM_006312), N-terminal GST tag, MW=37.6 kDa, co-expressed in baculovirus expression system.
as §3
HDAC3: 0.1 ng/ul HDAC3 and 50 μM HDAC substrate are in the reaction buffer with 1% DMSO final. Incubate for 1 hour at 30° C.
as §4, §5

Human HDAC9 = target: T4, Human HDAC9 (Homo sapiens, UniProt Q9UKV0); experiment: HDAC9 biochemical assay, class IIa-specific substrate; conditions: read-out: HDAC Isoform IC50 (nM) 9
T4 construct: amino acids 604-1066 with C-terminal His tag; His (C); host or cells: baculovirus expression system
In short: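 HDAC9 residues 604-1066 (C-terminal His tag, baculovirus-expressed) at 0.06 ng/ul with 50 μM class IIa substrate Boc-Lys(trifluoroacetyl)-AMC in Tris-HCl pH 8.0 buffer with BSA and 1% DMSO. 30 min at room temperature, then developer added; fluorescence read at 360/460 nm Ex/Em.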

Human HDAC4 = target: T5, Human HDAC4 (Homo sapiens, UniProt P56524); experiment: HDAC4 biochemical assay, class IIa-specific substrate; conditions: read-out: HDAC Isoform IC50 (nM) 4
T5 construct: amino acids 627-1085 with N-terminal GST tag; GST (N); host or cells: baculovirus expression system
In short: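 Two-step fluorogenic read-out: deacetylated BOC-Lys(trifluoroacetyl)-AMC (50 μM) was digested by developer and measured at Ex/Em 360/460. Deacetylation by 0.004 ng/ul HDAC4 (aa 627-1085, N-terminal GST) ran 30 min at room temperature, pH 8.0 Tris buffer, 1 mg/mL BSA, 1% DMSO.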

Human HDAC2 = target: T6, Human HDAC2 (Homo sapiens, UniProt Q92769); experiment: HDAC2 biochemical assay, AMC-labeled peptide substrate; conditions: read-out: HDAC Isoform IC50 (nM) 2
T6 construct: full length with C-terminal GST-tag; GST (C); host or cells: baculovirus expression system
Description: as §1, §2
Human HDAC2 (GenBank Accession No. NM_001527), full length with C-terminal GST-tag, MW=82.9 kDa, expressed inbaculovirus expression system.
as §3
HDAC2: 0.07 ng/ul HDAC2 and 50 μM HDAC substrate are in the reaction buffer with 1% DMSO final. Incubate for 1 hour at 30° C.
as §4, §5

T6 sequence (Q92769 whole entry, canonical isoform): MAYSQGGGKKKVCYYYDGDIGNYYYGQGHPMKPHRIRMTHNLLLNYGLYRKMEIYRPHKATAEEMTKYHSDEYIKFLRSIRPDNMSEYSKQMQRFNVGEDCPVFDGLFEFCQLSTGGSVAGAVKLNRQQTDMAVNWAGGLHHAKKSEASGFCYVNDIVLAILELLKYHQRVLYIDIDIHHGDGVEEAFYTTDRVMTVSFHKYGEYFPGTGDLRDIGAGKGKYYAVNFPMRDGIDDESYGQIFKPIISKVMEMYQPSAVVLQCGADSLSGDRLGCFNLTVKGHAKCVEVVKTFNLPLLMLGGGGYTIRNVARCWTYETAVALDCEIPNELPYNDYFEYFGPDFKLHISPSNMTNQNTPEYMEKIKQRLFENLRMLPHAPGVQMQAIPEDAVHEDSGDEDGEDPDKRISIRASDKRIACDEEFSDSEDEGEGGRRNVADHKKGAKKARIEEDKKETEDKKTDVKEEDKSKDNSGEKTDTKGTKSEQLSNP
T1 sequence (Q9UQL6 656-1122 limits assumed): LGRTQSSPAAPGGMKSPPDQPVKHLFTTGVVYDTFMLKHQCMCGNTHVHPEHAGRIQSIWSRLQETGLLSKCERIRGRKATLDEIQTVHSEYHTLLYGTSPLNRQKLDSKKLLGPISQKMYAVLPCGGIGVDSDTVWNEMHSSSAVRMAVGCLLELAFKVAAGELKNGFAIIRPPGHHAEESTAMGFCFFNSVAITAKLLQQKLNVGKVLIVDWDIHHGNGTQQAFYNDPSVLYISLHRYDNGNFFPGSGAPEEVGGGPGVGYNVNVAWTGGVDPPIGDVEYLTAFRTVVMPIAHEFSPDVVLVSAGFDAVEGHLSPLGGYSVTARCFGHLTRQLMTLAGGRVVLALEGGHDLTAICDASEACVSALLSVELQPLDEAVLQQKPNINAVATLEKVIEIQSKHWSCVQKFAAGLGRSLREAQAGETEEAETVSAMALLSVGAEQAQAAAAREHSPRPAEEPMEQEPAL
T4 sequence (Q9UKV0 604-1066 isoform Q9UKV0-5): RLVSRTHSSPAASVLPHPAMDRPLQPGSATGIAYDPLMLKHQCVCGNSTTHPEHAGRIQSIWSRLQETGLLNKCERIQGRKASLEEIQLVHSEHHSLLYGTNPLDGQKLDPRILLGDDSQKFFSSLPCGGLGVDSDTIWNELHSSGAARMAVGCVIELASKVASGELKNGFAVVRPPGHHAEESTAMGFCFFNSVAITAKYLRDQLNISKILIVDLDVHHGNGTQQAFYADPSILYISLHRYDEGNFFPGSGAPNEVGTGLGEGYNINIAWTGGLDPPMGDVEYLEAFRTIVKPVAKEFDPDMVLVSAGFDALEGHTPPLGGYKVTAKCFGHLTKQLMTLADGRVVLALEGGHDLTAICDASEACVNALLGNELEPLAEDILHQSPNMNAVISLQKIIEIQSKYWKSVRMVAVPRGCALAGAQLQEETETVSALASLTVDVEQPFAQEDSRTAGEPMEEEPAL
T5 sequence (P56524 627-1084 limits assumed): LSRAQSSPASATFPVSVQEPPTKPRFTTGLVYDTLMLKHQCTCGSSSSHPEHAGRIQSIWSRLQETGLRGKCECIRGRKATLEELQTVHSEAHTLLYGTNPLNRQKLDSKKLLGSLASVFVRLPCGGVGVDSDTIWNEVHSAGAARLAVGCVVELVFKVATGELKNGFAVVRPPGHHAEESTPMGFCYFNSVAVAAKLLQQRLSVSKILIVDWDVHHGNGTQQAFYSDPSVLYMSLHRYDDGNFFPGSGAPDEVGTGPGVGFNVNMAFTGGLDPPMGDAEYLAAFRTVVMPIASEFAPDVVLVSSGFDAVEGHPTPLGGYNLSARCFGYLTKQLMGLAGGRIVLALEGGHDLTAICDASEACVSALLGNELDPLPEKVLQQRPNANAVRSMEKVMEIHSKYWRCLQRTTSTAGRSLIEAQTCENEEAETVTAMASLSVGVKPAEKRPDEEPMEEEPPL
T3 sequence (O15379 whole entry, canonical isoform): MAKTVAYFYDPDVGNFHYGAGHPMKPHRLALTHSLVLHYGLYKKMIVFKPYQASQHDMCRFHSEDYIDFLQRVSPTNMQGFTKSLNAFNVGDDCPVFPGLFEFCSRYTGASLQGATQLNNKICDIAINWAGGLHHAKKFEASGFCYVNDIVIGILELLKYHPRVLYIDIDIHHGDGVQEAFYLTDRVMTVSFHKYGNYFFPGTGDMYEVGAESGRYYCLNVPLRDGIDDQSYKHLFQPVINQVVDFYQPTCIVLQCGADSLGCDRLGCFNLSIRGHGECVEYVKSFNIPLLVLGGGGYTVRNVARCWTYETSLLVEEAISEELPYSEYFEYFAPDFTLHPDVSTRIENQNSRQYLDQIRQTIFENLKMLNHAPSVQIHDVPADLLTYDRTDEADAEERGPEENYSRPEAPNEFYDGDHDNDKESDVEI
T3 sequence (Q9Y618 395-489 partner limits assumed): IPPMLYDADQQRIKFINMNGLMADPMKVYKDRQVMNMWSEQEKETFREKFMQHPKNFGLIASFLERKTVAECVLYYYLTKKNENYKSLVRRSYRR

Row | Structure (SMILES) | IC50 (Human HDAC5) | IC50 (Human HDAC8) | IC50 [1] | IC50 (Human HDAC9) | IC50 (Human HDAC4) | IC50 (Human HDAC2)
1 | NC(=O)c1ccc(N(Cc2ccc(-c3noc(C(F)(F)F)n3)s2)c2cnccn2)nn1 [Example DQ, 6-[(Pyrazin-2-yl)({5-[5-(trifluoromethyl)-1,2,4-oxadiazol-3-yl]thiophen-2-yl}methyl)amino]pyridazine-3-carboxamide] | ≤ 500 nM | ≤ 10000 nM | ≤ 10000 nM | ≤ 1000 nM | ≤ 500 nM | > 10000 nM
2 | FC(F)(F)c1cnnc(N(Cc2ccc(-c3noc(C(F)(F)F)n3)s2)c2cccnn2)c1 [Example ER, N-(Pyridazin-3-yl)-5-(trifluoromethyl)-N-({5-[5-(trifluoromethyl)-1,2,4-oxadiazol-3-yl]thiophen-2-yl}methyl)pyridazin-3-amine] | ≤ 10000 nM | – | – | ≤ 10000 nM | ≤ 10000 nM | –
3 | N#Cc1cnnc(N(Cc2ccc(-c3noc(C(F)(F)F)n3)s2)c2cnccn2)c1 [Example EE, 6-[(Pyrazin-2-yl)({5-[5-(trifluoromethyl)-1,2,4-oxadiazol-3-yl]thiophen-2-yl}methyl)amino]pyridazine-4-carbonitrile] | ≤ 1000 nM | ≤ 10000 nM | > 10000 nM | ≤ 10000 nM | ≤ 10000 nM | > 10000 nM
4 | O=C(c1cnnc(N(Cc2ccc(-c3noc(C(F)(F)F)n3)s2)c2cnccn2)c1)N1CCCC1 [Example EA, N-(Pyrazin-2-yl)-5-(pyrrolidine-1-carbonyl)-N-({5-[5-(trifluoromethyl)-1,2,4-oxadiazol-3-yl]thiophen-2-yl}methyl)pyridazin-3-amine] | ≤ 1000 nM | ≤ 10000 nM | ≤ 10000 nM | ≤ 10000 nM | ≤ 10000 nM | > 10000 nM
5 | O=C(O)c1cnnc(N(Cc2ccc(-c3noc(C(F)(F)F)n3)s2)c2cc(C(F)(F)F)cnn2)c1 [Example ES, 6-[({5-[5-(Trifluoromethyl)-1,2,4-oxadiazol-3-yl]thiophen-2-yl}methyl)[5-(trifluoromethyl)pyridazin-3-yl]amino]pyridazine-4-carboxylicacid] | ≤ 10000 nM | ≤ 10000 nM | > 10000 nM | > 10000 nM | ≤ 10000 nM | > 10000 nM
6 | FC(F)(F)c1cnnc(N(Cc2ccc(-c3noc(C(F)(F)F)n3)s2)c2cc(C(F)(F)F)cnn2)c1 [Example EU, 5-(Trifluoromethyl)-N-({5-[5-(trifluoromethyl)-1,2,4-oxadiazol-3-yl]thiophen-2-yl}methyl)-N-[5-(trifluoromethyl)pyridazin-3-yl]pyridazin-3-amine] | ≤ 10000 nM | – | – | > 10000 nM | ≤ 10000 nM | –
7 | COc1cncc(N(Cc2ccc(-c3noc(C(F)(F)F)n3)s2)c2cc(C(F)(F)F)cnn2)n1 [Example EN, N-(6-Methoxypyrazin-2-yl)-5-(trifluoromethyl)-N-({5-[5-(trifluoromethyl)-1,2,4-oxadiazol-3-yl]thiophen-2-yl}methyl)pyridazin-3-amine] | ≤ 10000 nM | – | – | > 10000 nM | ≤ 10000 nM | –

Now from value to molecule:

Row | IC50 (Human HDAC5) | IC50 (Human HDAC8) | IC50 [1] | IC50 (Human HDAC9) | IC50 (Human HDAC4) | IC50 (Human HDAC2) | Structure (SMILES)
8 | ≤ 1000 nM | ≤ 10000 nM | > 10000 nM | ≤ 10000 nM | ≤ 10000 nM | > 10000 nM | CN(C(=O)c1cnnc(N(Cc2ccc(-c3noc(C(F)(F)F)n3)s2)c2cnccn2)c1)S(C)(=O)=O [Example GE, N-Methanesulfonyl-N-methyl-6-[(pyrazin-2-yl)({5-[5-(trifluoromethyl)-1,2,4-oxadiazol-3-yl]thiophen-2-yl}methyl)amino]pyridazine-4-carboxamide]
9 | ≤ 1000 nM | ≤ 10000 nM | > 10000 nM | ≤ 10000 nM | ≤ 1000 nM | > 10000 nM | CC(C)(O)c1cnnc(N(Cc2ccc(-c3noc(C(F)(F)F)n3)s2)c2cnccn2)c1 [Example GS, 2-{6-[(Pyrazin-2-yl)({5-[5-(trifluoromethyl)-1,2,4-oxadiazol-3-yl]thiophen-2-yl}methyl)amino]pyridazin-4-yl}propan-2-ol]
10 | ≤ 1000 nM | ≤ 10000 nM | > 10000 nM | ≤ 10000 nM | ≤ 10000 nM | > 10000 nM | FC(F)(F)c1nc(-c2ccc(CN(c3cnccn3)c3cc(N4CCCC4)cnn3)s2)no1 [Example FQ, N-(Pyrazin-2-yl)-5-(pyrrolidin-1-yl)-N-({5-[5-(trifluoromethyl)-1,2,4-oxadiazol-3-yl]thiophen-2-yl}methyl)pyridazin-3-amine]
11 | ≤ 10000 nM | ≤ 10000 nM | > 10000 nM | ≤ 10000 nM | ≤ 10000 nM | > 10000 nM | O=C(O)c1ccc(N(Cc2sc(-c3noc(C(F)(F)F)n3)cc2F)c2cnccn2)nn1 [Example EZ, 6-[({3-Fluoro-5-[5-(trifluoromethyl)-1,2,4-oxadiazol-3-yl]thiophen-2-yl}methyl)(pyrazin-2-yl)amino]pyridazine-3-carboxylic acid]
12 | ≤ 1000 nM | ≤ 10000 nM | ≤ 10000 nM | ≤ 10000 nM | ≤ 10000 nM | > 10000 nM | COC1(C(F)(F)F)CN(C(=O)c2cnnc(N(Cc3ccc(-c4noc(C(F)(F)F)n4)s3)c3cnccn3)c2)C1 [Example GL, 5-[3-Methoxy-3-(trifluoromethyl)azetidine-1-carbonyl]-N-(pyrazin-2-yl)-N-({5-[5-(trifluoromethyl)-1,2,4-oxadiazol-3-yl]thiophen-2-yl}methyl)pyridazin-3-amine]
13 | ≤ 10000 nM | ≤ 10000 nM | > 10000 nM | ≤ 10000 nM | ≤ 10000 nM | > 10000 nM | CC(F)(F)c1cnnc(N(Cc2ccc(-c3noc(C(F)(F)F)n3)s2)c2cnccn2)c1 [Example GU, 5-(1,1-Difluoroethyl)-N-(pyrazin-2-yl)-N-({5-[5-(trifluoromethyl)-1,2,4-oxadiazol-3-yl]thiophen-2-yl}methyl)pyridazin-3-amine]
